Consider one compound from BindingDB's records for doi:10.1021/jm070849r (Pfizer, 2008).

SMILES strings stand for the structures.

This assay has as its target T1, 3-hydroxy-3-methylglutaryl-coenzyme A reductase (Rattus norvegicus, UniProt P51639).
T1 sequence (P51639 whole entry): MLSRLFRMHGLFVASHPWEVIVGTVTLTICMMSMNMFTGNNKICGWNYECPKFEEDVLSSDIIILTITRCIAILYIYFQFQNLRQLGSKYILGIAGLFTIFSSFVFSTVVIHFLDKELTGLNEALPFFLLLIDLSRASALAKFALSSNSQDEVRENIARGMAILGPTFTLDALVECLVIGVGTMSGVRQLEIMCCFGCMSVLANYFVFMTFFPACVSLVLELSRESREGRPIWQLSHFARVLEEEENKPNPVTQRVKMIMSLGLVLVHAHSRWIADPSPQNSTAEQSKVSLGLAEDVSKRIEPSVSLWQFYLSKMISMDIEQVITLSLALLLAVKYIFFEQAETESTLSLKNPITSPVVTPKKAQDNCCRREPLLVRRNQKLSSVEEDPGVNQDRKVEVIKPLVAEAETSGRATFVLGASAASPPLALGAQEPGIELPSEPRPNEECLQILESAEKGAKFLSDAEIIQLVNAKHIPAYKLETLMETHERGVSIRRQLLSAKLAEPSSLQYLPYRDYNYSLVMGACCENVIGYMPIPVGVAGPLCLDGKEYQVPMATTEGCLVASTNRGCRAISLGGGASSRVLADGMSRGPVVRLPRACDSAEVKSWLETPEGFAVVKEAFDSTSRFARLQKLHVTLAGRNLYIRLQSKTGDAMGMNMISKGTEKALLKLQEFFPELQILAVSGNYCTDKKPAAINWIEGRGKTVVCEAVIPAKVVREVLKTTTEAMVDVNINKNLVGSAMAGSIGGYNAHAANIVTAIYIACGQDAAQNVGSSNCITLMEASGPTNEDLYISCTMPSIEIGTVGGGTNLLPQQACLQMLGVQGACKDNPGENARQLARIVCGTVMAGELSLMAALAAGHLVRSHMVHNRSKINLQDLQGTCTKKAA
The assay is described as follows: HMG-CoA Reductase Enzyme Assay and Inhibition of Cellular Cholesterol Synthesis Assay. The settings on record: pH 7.2; 37 °C. The protocol: Enzyme Assay for HMG-CoA reductase was based on the conversion of isotopically labeled HMG-CoA to mevalonic acid using rat liver microsomes as enzyme source. The product, [14C]-mevalonic acid was lactonized and separated from excess substrate via an anion ion exchange resin column, and radioactivity was counted on a scintillation counter. The IC50 values were calculated with GraphPad software (Prism). The cellular assay EC50/IC50 values were obtained from inhibition of cholesterol synthesis in rat hepatocyte.

The compound `CC(C)c1c(C(=O)N(Cc2ccccc2)C(C)C)nn(-c2ccc(F)cc2)c1CC[C@@H](O)C[C@@H](O)CC(=O)O` [sodium (3R,5R)-7-{3-[benzyl(propan-2-yl)carbamoyl]-1-(4-fluorophenyl)-4-(propan-2-yl)-1H-pyrazol-5-yl}-3,5-dihydroxyheptanoate] displayed an IC50 of 10 nM.

In general, IC50 refers to the concentration needed to halve the response being measured. A higher IC50 goes with weaker potency in that assay.
